Reference: article PMC11191402, “High-Affinity NIR-Fluorescent Inhibitors for Tumor Imaging via Carbonic Anhydrase IX” (Bioconjugate Chemistry, 2024)
“And” between values parts separate entries of the source, which are not always exact repeats. Identical values can stand only once.

How the values were obtained:
[1] = target: T1, human recombinant CAII (Homo sapiens, UniProt P00918); test: Fluorescence-based thermal shift assay (FTSA), CAII; type: binding; settings: 37 °C, pH 7.0
T1 construct: made in house; host or cells: bacterial expression system
Description: (§1) The binding affinities of the four NIR-fluorescent compounds to 12 catalytically active recombinant CA isozymes were determined by the fluorescence-based thermal shift assay (FTSA), and the dissociation constants (Kd’s) at physiological pH (pH 7.0) and 37 °C are listed in Table 1.
(§2) All 12 catalytically active human CA isozymes were prepared recombinantly as previously described. Most isozymes were truncated, and only the catalytic domains of the proteins were produced.[9],[56] All isozymes were expressed in a bacterial expression system except that CAIX was expressed in mammalian cells. The proteins were chromatographically purified via immobilized metal affinity chromatography, ion-exchange, or p-aminomethylbenzenesulfonamide-sepharose affinity chromatography. Protein purity was confirmed by SDS-PAGE, and MW was confirmed by mass spectrometry with 1 Da precision, as predicted from theoretical protein sequence.
(§3) The fluorescence-based thermal shift assay (FTSA) was used to determine the binding affinity of compounds for all catalytically active CA isozymes. The assay is based on the thermal stabilization of proteins by bound ligands and distinguishes itself in its ability to determine extremely high affinity (picomolar Kd) of compound binding to CAIX. The experiments were performed with a QIAGEN Rotor-Gene Q instrument using either the blue channel (365 ± 20 nm excitation and 460 ± 15 nm emission detection) or the green channel (470 ± 10 nm excitation and 510 ± 5 nm detection). The protein solution, in the absence and presence of various compound concentrations ranging from 3 to 200 μM (2× dilutions), was heated from 25 to 99 °C (heating rate, 1 °C/min). The CA isozyme melting temperature Tm was determined by following the fluorescence of 8-anilino-1-naphthalenesulfonate (ANS) or Glomelt dye. The samples consisted of 5 μM protein (or 10 μM CAIV), different concentrations of the tested compound, and 50 μM ANS or 200× diluted Glomelt in 50 mM sodium phosphate buffer (at pH 7.0) containing 100 mM sodium chloride and 2–4% (v/v) dimethyl sulfoxide. To obtain the dissociation constant (at 37 °C), data analysis was performed, and the curves were fit using the Thermott Web server.[57]

[2] = target: T2, human recombinant CAVII (Homo sapiens, UniProt P43166); test: Fluorescence-based thermal shift assay (FTSA), CAVII; type: binding; settings: 37 °C, pH 7.0
T2 construct: made in house; host or cells: bacterial expression system
Description: as §1, §2
as §3, with “To obtain the dissociation constant (at 37 °C), data analysis was performed, and the curves were fit using the Thermott Web server.[57]” left out

[3] = target: T3, human recombinant CAIX (Homo sapiens, UniProt Q16790); test: Fluorescence-based thermal shift assay (FTSA), CAIX; type: binding; settings: 37 °C, pH 7.0
T3 construct: Most isozymes were truncated, and only the catalytic domains of the proteins were produced; made in house; host or cells: mammalian cells
Description: as §1, §2, §3

[4] = Absorption, emission and fluorescence quantum yield measurement; type: physicochemical; settings: for λabs: absorption spectrum; for λem (fluorescence maximum): emission spectrum
Description: Figure S1. Absorption and emission spectra of NIR inhibitors. GZ22-1 λ abs= 783 nm, λ em= 807
Norm. absorption (arb. units)
Norm. photoluminescence (arb. units)
Norm absorption (arb. units) […]
Table S1. Fluorescence quantum yield comparison of NIR-fluorescent compounds. Compound
concentration was 100 nM in PBS. L a-c – excitation radiation integrals, P b-c – fluorescence
Nr. Compound Excitation La Lb Lc A(1) Pb Pc QY(2)
(1)Sample absorbance . (2)Fluorescence quantum yield: .LPc―(1―A)Pb […]

[5] = target: T4, human recombinant CAXIII (Homo sapiens, UniProt Q8N1Q1); test: Fluorescence-based thermal shift assay (FTSA), CAXIII; type: binding; settings: 37 °C, pH 7.0
T4 construct: made in house; host or cells: bacterial expression system
Description: as §1, §2
as §3, with “To obtain the dissociation constant (at 37 °C), data analysis was performed, and the curves were fit using the Thermott Web server.[57]” left out

[6] = target: T5, cell-expressed CAIX (HeLa cells grown under hypoxia) (Homo sapiens, UniProt Q16790); test: Competition assay with fluorescein-labeled GZ19-32 in live hypoxia-grown HeLa cells; type: binding; settings: 10 nM GZ19-32, Pt 2 nM CAIX
T5 construct: The cells were grown under hypoxia and not transfected; endogenous in cells; host or cells: HeLa cells, 3 days under hypoxia, not transfected
Description: Hypoxia-grown HeLa cell culture expressed approximately 2 nM CAIX, which was quantified by fluorescein-labeled GZ19-32 added at a constant concentration of 10 nM throughout the assay. The four NIR-fluorescent compounds were dosed and competed with the GZ19-32 compound in a dose-dependent manner. At high concentrations, all four compounds fully outcompeted the fluorescein-bearing compound yielding nice competition curves (Figure 2B). Each curve was fit using the total protein CAIX (Pt) value of 2 nM, and the Kd of GZ19-32 was 200 pM. The dissociation constants for each NIR-fluorescent compound were 4 nM for GZ21-19, 6 nM for GZ22-1, 1.5 nM for GZ22-4, and 15 nM for AZ21-6. Thus, compound affinities were similar but not identical, despite having identical headgroups. […] The affinity of fluorescein-bearing GZ19-32 was the highest of all, around 200 pM.
For the competition assay, live cells were seeded in 12-well plates and incubated for 3 days under hypoxia. 200 μL of serially diluted NIR-fluorescent compound (12 2-fold dilution steps) in the PBS medium, starting from 5120 nM (5120, 2560, 1280,..., 0 nM), was mixed with 200 μL of 20 nM GZ19-32 solution (PBS). After the removal of growth medium, 200 μL obtained solutions were applied to the cells grown in 12-well culture plates. Plates were incubated in the CO2 incubator at normoxia for 20 min. The solution was removed, and cells were washed 3 times for 1–2 min with 400 μL of PBS. Then, 180 μL of TrypLe express enzyme (Thermo Fisher) was added to each well and incubated in the normoxia chamber for 10 min. Then, 20 μL of Defined Trypsin Inhibitor solution (Thermo Fisher) was added and cells were resuspended by pipetting. 150 μL of the suspension from each well was transferred to Thermo Scientific Nunc MicroWell 96-Well Optical-Bottom Plates for fluorescence and absorbance measurements. 485 nm excitation and 520 nm emission wavelengths were used to measure fluorescence on a Synergy HTX, BioTek plate reader. 650 nm wavelength was used for absorbance measurements.

[7] = target: T6, human recombinant CAVA (Homo sapiens, UniProt P35218); test: Fluorescence-based thermal shift assay (FTSA), CAVA; type: binding; settings: 37 °C, pH 7.0
T6 construct: Most isozymes were truncated, and only the catalytic domains of the proteins were produced; made in house; host or cells: bacterial expression system
Description: as §1, §2, §3

[8] = target: T7, human recombinant CAIV (Homo sapiens, UniProt P22748); test: Fluorescence-based thermal shift assay (FTSA), CAIV; type: binding; settings: 37 °C, pH 7.0
T7 construct: Most isozymes were truncated, and only the catalytic domains of the proteins were produced; made in house; host or cells: bacterial expression system
Description: as §1, §2, §3

T6 sequence (P35218 39-296 limits assumed): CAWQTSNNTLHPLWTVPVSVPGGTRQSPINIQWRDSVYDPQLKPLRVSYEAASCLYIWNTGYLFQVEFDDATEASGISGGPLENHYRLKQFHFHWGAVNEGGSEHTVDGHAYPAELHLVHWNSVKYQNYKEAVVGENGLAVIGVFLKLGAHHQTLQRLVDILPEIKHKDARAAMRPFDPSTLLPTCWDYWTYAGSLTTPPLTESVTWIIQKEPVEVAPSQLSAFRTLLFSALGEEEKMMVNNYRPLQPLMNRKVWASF
T7 sequence (P22748 21-285 limits assumed): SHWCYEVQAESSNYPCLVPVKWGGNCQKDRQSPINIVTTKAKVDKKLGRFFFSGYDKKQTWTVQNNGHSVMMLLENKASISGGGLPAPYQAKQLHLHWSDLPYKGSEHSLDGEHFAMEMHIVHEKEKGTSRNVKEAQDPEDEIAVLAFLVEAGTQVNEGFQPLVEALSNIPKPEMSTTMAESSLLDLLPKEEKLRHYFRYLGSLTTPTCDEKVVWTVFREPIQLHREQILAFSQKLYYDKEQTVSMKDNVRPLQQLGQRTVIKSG
T4 sequence (Q8N1Q1 whole entry): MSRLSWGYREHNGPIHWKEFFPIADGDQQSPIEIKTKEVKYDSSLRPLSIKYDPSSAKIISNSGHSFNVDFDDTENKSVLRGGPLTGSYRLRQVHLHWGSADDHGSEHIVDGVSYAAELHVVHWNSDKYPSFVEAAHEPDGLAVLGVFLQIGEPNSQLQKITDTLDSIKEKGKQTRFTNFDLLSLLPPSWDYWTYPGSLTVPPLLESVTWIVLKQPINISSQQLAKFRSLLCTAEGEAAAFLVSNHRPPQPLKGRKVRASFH
T2 sequence (P43166 whole entry): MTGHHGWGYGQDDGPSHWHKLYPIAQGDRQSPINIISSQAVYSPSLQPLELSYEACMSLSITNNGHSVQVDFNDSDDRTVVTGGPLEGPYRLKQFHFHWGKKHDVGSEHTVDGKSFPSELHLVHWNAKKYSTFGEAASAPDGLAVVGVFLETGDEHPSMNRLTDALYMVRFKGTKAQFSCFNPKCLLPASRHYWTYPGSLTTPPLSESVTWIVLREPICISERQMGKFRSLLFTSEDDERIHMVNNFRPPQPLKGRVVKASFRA

| Kd [1] [nM] | Kd [2] [nM] | Kd [3] | λabs [4] [nm] | λem (fluorescence maximum) [4] [nm] | Kd [5] [nM] | Kd [6] [nM] | Kd [7] [nM] | Kd [8] [nM] | QY (fluorescence quantum yield) ([4]; 100 nM in PBS, excitation 650nm) | Structure (SMILES) |
| --- | --- | --- | --- | --- | --- | --- | --- | --- | --- | --- |
| 200 | 40 | 0.17 nM and 0.2 nM | 783 | 807 | 5 | 1.5 | 2000 | 8000 |  | CC1(C)C(/C=C/C2=C(Oc3ccc(CCC(=O)NCCOCCOCCOCCOCCOCCOCCOCCOCCOCCOCCOCCNC(=O)CCS(=O)(=O)c4c(F)c(F)c(S(N)(=O)=O)c(F)c4NC4CCCCCCC4)cc3)C(=C/C=C3\N(CCCCS(=O)(=O)[O-])c4ccccc4C3(C)C)/CCC2)=[N+](CCCCS(=O)(=O)[O-])c2ccccc21.[Na+] [GZ22-4, Sodium 4-((Z)-2-((E)-2-(2-(4-(43-((2-(Cyclooctylamino)-3,5,6-trifluoro-4-sulfamoylphenyl)sulfonyl)-3,41-dioxo-7,10,13,16,19,22,25,28,31,34,37-undecaoxa-4,40-diazatritetracontyl)phenoxy)-3-((E)-2-(3,3-dimethyl-1-(4-sulfonatobutyl)-3H-indol-1-ium-2-yl)vinyl)cyclohex-2-en-1-ylidene)ethylidene)-3,3-dimethylindolin-1-yl)butane-1-sulfonate] |
| 400 |  | 0.2 nM | 783 | 805 |  | 4 | 2000 | 2000 |  | CC1(C)C(/C=C/C2=C(Oc3cccc(CC(=O)NCCCOCCOCCOCCCNC(=O)CCS(=O)(=O)c4c(F)c(F)c(S(N)(=O)=O)c(F)c4NC4CCCCCCC4)c3)C(=C/C=C3\N(CCCCS(=O)(=O)[O-])c4ccccc4C3(C)C)/CCC2)=[N+](CCCCS(=O)(=O)[O-])c2ccccc21.[Na+] [GZ21-19, Sodium 4-((Z)-2-((E)-2-(2-(3-(20-((2-(Cyclooctylamino)-3,5,6-trifluoro-4-sulfamoylphenyl)sulfonyl)-2,18-dioxo-7,10,13-trioxa-3,17-diazaicosyl)phenoxy)-3-((E)-2-(3,3-dimethyl-1-(4-sulfonatobutyl)-3H-indol-1-ium-2-yl)vinyl)cyclohex-2-en-1-ylidene)ethylidene)-3,3-dimethylindolin-1-yl)butane-1-sulfonate] |
| 20 | 30 | 0.3 nM | 783 | 807 | 8 | 6 | 1000 | 7000 |  | CC1(C)C(/C=C/C2=C(Oc3ccc(CCC(=O)NCCCOCCOCCOCCCNC(=O)CCS(=O)(=O)c4c(F)c(F)c(S(N)(=O)=O)c(F)c4NC4CCCCCCC4)cc3)C(=C/C=C3\N(CCCCS(=O)(=O)[O-])c4ccccc4C3(C)C)/CCC2)=[N+](CCCCS(=O)(=O)[O-])c2ccccc21.[Na+] [GZ22-1, Sodium 4-((Z)-2-((E)-2-(2-(4-(21-((2-(Cyclooctylamino)-3,5,6-trifluoro-4-sulfamoylphenyl)sulfonyl)-3,19-dioxo-8,11,14-trioxa-4,18-diazahenicosyl)phenoxy)-3-((E)-2-(3,3-dimethyl-1-(4-sulfonatobutyl)-3H-indol-1-ium-2-yl)vinyl)cyclohex-2-en-1-ylidene)ethylidene)-3,3-dimethylindolin-1-yl)butane-1-sulfonate] |
| 2000 | 60 | 0.3 nM | 637 |  | 10 | 15 | 10000 | 8000 | 0.43 | CC1(C)C(/C=C/C2=C(NCCCOCCOCCOCCCNC(=O)CCC(=O)NCCS(=O)(=O)c3c(F)c(F)c(S(N)(=O)=O)c(F)c3NC3CCCCCCC3)C(=C/C=C3\N(CCCCS(=O)(=O)[O-])c4ccccc4C3(C)C)/CCC2)=[N+](CCCCS(=O)(=O)[O-])c2ccccc21.[Na+] [AZ21-6, Sodium 4-((Z)-2-((E)-2-(2-((1-((2-(Cyclooctylamino)-3,5,6-trifluoro-4-sulfamoylphenyl)sulfonyl)-4,7-dioxo-12,15,18-trioxa-3,8-diazahenicosan-21-yl)amino)-3-((E)-2-(3,3-dimethyl-1-(4-sulfonatobutyl)-3H-indol-1-ium-2-yl)vinyl)cyclohex-2-en-1-ylidene)ethylidene)-3,3-dimethylindolin-1-yl)butane-1-sulfonate] |
